In ChEMBL document CHEMBL5120848, “Tapping into the antitubercular potential of 2,5-dimethylpyrroles: A structure-activity relationship interrogation” (Eur J Med Chem, 2022):
≈ marks a conversion by molar mass, not a printed value. Calls of active or inactive are those of the source. The calls are words filed in the database; no cut-off is given here.

What was measured:
[1] = system: Mycobacterium tuberculosis; test: Anti-tubercular activity against Mycobacterium tuberculosis H37Rv assessed as inhibition of mycobacterial growth incubated for 7 days by resazurin-dye based analysis; format: functional; conditions: 168 h, time 7 day
[2] = Cytotoxicity against mouse J774.A1 cells assessed as reduction in cell viability incubated for 24 hrs by resazurin-dye based analysis; format: toxicity
[3] = Cytotoxicity against human MRC5 cells assessed as reduction in cell viability incubated for 24 hrs by resazurin-dye based analysis; format: toxicity
[4] = Selectivity index, ratio of IC50 for cytotoxicity against mouse J774.A1 cells to MIC90 for anti-tubercular activity against Mycobacterium tuberculosis H37Rv; format: toxicity, cell-based; conditions: read-out: Selectivity Index
[5] = Selectivity index, ratio of IC50 for cytotoxicity against human MRC5 cells to MIC90 for anti-tubercular activity against Mycobacterium tuberculosis H37Rv; format: toxicity, cell-based; conditions: read-out: Selectivity Index
[6] = system: Mycobacterium tuberculosis; test: Anti-tubercular activity against Mycobacterium tuberculosis CF16 assessed as inhibition of mycobacterial growth incubated for 7 days by resazurin-dye based analysis; format: functional; conditions: CF16, 168 h, time 7 day
[7] = system: Mycobacterium tuberculosis; test: Anti-tubercular activity against Mycobacterium tuberculosis CF61 assessed as inhibition of mycobacterial growth incubated for 7 days by resazurin-dye based analysis; format: functional; conditions: CF61, 168 h, time 7 day
[8] = system: Mycobacterium tuberculosis; test: Anti-tubercular activity against Mycobacterium tuberculosis CF76 assessed as inhibition of mycobacterial growth incubated for 7 days by resazurin-dye based analysis; format: functional; conditions: CF76, 168 h, time 7 day
[9] = system: Mycobacterium tuberculosis; test: Anti-tubercular activity against Mycobacterium tuberculosis CF161 assessed as inhibition of mycobacterial growth incubated for 7 days by resazurin-dye based analysis; format: functional; conditions: CF161, 168 h, time 7 day
[10] = system: Mycobacterium tuberculosis; test: Anti-tubercular activity against Mycobacterium tuberculosis CF152 assessed as inhibition of mycobacterial growth incubated for 7 days by resazurin-dye based analysis; format: functional; conditions: CF152, 168 h, time 7 day
[11] = system: Mycobacterium tuberculosis; test: Bactericidal activity against Mycobacterium tuberculosis H37Rv assessed as log reduction of bacterial colonies at 1XMIC measured on day 12 by time-kill kinetics analysis (reference value: 7.54 log10CFU/ml); format: functional; conditions: time 12 day
[12] = system: Mycobacterium tuberculosis; test: Anti-tubercular activity against Mycobacterium tuberculosis infected in mouse J774.A1 cells assessed as inhibition of intracellular bacilli growth incubated for 72 hrs; format: functional, organism-based
[13] = system: Mycobacterium tuberculosis; test: Bacteriostatic activity against Mycobacterium tuberculosis H37Rv at 1XMIC measured for 12 days by time-kill kinetics analysis; format: functional, organism-based; conditions: time 12.0 day

## Cc1cc(CNC2CCC(NC(=N)N)CC2)c(C)n1-c1ccc(Cl)cc1.Cl.Cl (centres undefined)
[1]
  MIC90: 10.4 µg/mL

## Cc1cc(CNCCCCCCCCNC(=N)N)c(C)n1-c1ccc(OCC(=O)N(C)C)cc1.Cl.Cl
[2]
  IC50 at 24 h: 12.8 µg/mL
[3]
  IC50 at 24 h: 36 µg/mL
[4]
  selectivity ratio: 1.43
[5]
  selectivity ratio: 4.04
[1]
  MIC90: 8.91 µg/mL

## Cc1cc(CNC2CCC(N)CC2)c(C)n1-c1ccc(Cl)cc1.Cl.Cl (centres undefined)
[1]
  MIC90: > 25 µg/mL

## Cc1cc(CNC2CCCCC2)c(C)n1-c1ccc(OCC(=O)O)cc1
[1]
  MIC90: 16.4 µg/mL (≈ 45.9 µM)

## Cc1ccc(-n2c(C)cc(CNCc3ccccc3)c2C)cc1
[2]
  IC50 at 24 h: 94 µg/mL (≈ 309 µM)
[6]
  MIC90: 7.51 µg/mL (≈ 24.7 µM)
[3]
  IC50 at 24 h: 13.7 µg/mL (≈ 45 µM)
[7]
  MIC90: 9.16 µg/mL (≈ 30.1 µM)
[8]
  MIC90: 8.18 µg/mL (≈ 26.9 µM)
[4]
  selectivity ratio: 15.8
[5]
  selectivity ratio: 2.3
[9]
  MIC90: 6.12 µg/mL (≈ 20.1 µM)
[10]
  MIC90: 6.35 µg/mL (≈ 20.9 µM)
[11]
  Activity: 2.65 log10CFU/ml
[1]
  MIC90: 5.58 µg/mL (≈ 18.3 µM)

## Cc1cc(CNCc2ccccc2)c(C)n1C(C)c1ccccc1 (centres undefined)
[2]
  IC50 at 24 h: 17.6 µg/mL (≈ 55.1 µM)
[3]
  IC50 at 24 h: 33.3 µg/mL (≈ 105 µM)
[4]
  selectivity ratio: 2.21
[5]
  selectivity ratio: 4.2
[1]
  MIC90: 7.94 µg/mL (≈ 24.9 µM)

## Cc1cc(CNNC(=O)c2ccncc2)c(C)n1-c1ccc(Cl)cc1
[2]
  IC50 at 24 h: 78.5 µg/mL (≈ 221 µM)
[3]
  IC50 at 24 h: 96.1 µg/mL (≈ 271 µM)

## Cc1cc(CNCC2CCCCC2)c(C)n1Cc1ccc(F)cc1
[12]
  Activity: Active
[2]
  IC50 at 24 h: 9.88 µg/mL (≈ 30.1 µM)
[6]
  MIC90: 7.69 µg/mL (≈ 23.4 µM)
[3]
  IC50 at 24 h: 21 µg/mL (≈ 63.9 µM)
[7]
  MIC90: 9.38 µg/mL (≈ 28.6 µM)
[8]
  MIC90: 18.8 µg/mL (≈ 57.2 µM)
[4]
  selectivity ratio: 13.6
[5]
  selectivity ratio: 28.8
[9]
  MIC90: 7.31 µg/mL (≈ 22.3 µM)
[10]
  MIC90: 7.53 µg/mL (≈ 22.9 µM)
[1]
  MIC90: 0.73 µg/mL (≈ 2.22 µM)
[13]
  Activity: Active

## Cc1cc(CNCC2CCCCC2)c(C)n1C1CCCC1
[1]
  MIC90: 9.21 µg/mL (≈ 31.9 µM)

## NCC[C@H](O)C(=O)N[C@@H]1C[C@H](N)[C@@H](O[C@H]2O[C@H](CN)[C@@H](O)[C@H](O)[C@H]2O)[C@H](O)[C@H]1O[C@H]1O[C@H](CO)[C@@H](O)[C@H](N)[C@H]1O [AMIKACIN]
[6]
  MIC90: 0.22 µg/mL (≈ 0.376 µM)
[7]
  MIC90: 0.91 µg/mL (≈ 1.55 µM)
[8]
  MIC90: 0.25 µg/mL (≈ 0.427 µM)
[9]
  MIC90: 0.24 µg/mL (≈ 0.41 µM)
[10]
  MIC90: 0.19 µg/mL (≈ 0.324 µM)
[1]
  MIC90: 0.25 µg/mL (≈ 0.427 µM)

## CCOc1ccc(-n2c(C)cc(CNC3CCCCC3)c2C)cc1
[2]
  IC50 at 24 h: 9.17 µg/mL (≈ 28.1 µM)
[3]
  IC50 at 24 h: 19.9 µg/mL (≈ 61 µM)
[4]
  selectivity ratio: 1.78
[5]
  selectivity ratio: 3.87
[1]
  MIC90: 5.14 µg/mL (≈ 15.7 µM)

## Cc1cc(CNCC2CCCCC2)c(C)n1Cc1ccc(Cl)cc1
[2]
  IC50 at 24 h: 5.92 µg/mL (≈ 17.2 µM)
[3]
  IC50 at 24 h: 10.8 µg/mL (≈ 31.2 µM)
[4]
  selectivity ratio: 4.25
[5]
  selectivity ratio: 7.71
[1]
  MIC90: 1.39 µg/mL (≈ 4.03 µM)

## COc1c(N2C[C@@H]3CCCN[C@@H]3C2)c(F)cc2c(=O)c(C(=O)O)cn(C3CC3)c12 [MOXIFLOXACIN]
[12]
  Activity: Active
[2]
  IC50 at 24 h: 14.6 µg/mL (≈ 36.3 µM)
[6]
  MIC90: 0.14 µg/mL (≈ 0.349 µM)
[3]
  IC50 at 24 h: > 100 µg/mL
[7]
  MIC90: 0.27 µg/mL (≈ 0.673 µM)
[8]
  MIC90: 0.2 µg/mL (≈ 0.498 µM)
[4]
  selectivity ratio: 209
[5]
  selectivity ratio: 1430
[9]
  MIC90: 0.17 µg/mL (≈ 0.423 µM)
[10]
  MIC90: 0.57 µg/mL (≈ 1.42 µM)
[1]
  MIC90: ≤ 0.07 µg/mL

## Cc1cc(CNCc2ccccc2)c(C)n1CC1CCCCC1
[2]
  IC50 at 24 h: 13.4 µg/mL (≈ 43.3 µM)
[3]
  IC50 at 24 h: 18.3 µg/mL (≈ 58.8 µM)
[4]
  selectivity ratio: 2.04
[5]
  selectivity ratio: 2.78
[1]
  MIC90: 6.58 µg/mL (≈ 21.2 µM)

## NNC(=O)c1ccncc1 [ISONIAZID]
[12]
  Activity: Active
[6]
  MIC90: > 25 µg/mL
[7]
  MIC90: > 25 µg/mL
[8]
  MIC90: > 25 µg/mL
[9]
  MIC90: > 25 µg/mL
[10]
  MIC90: > 25 µg/mL
[1]
  MIC90: 0.11 µg/mL (≈ 0.802 µM)

## Cc1cc(CNCc2ccccc2)c(C)n1Cc1ccc(F)cc1
[2]
  IC50 at 24 h: 15.7 µg/mL (≈ 48.7 µM)
[3]
  IC50 at 24 h: 16.2 µg/mL (≈ 50.1 µM)
[4]
  selectivity ratio: 2.26
[5]
  selectivity ratio: 2.32
[1]
  MIC90: 6.96 µg/mL (≈ 21.6 µM)

## Cc1cc(CNCC2CCCCC2)c(C)n1C1CCCCC1
[2]
  IC50 at 24 h: 12 µg/mL (≈ 39.6 µM)
[3]
  IC50 at 24 h: 26.7 µg/mL (≈ 88.3 µM)
[4]
  selectivity ratio: 6.89
[5]
  selectivity ratio: 15.3
[1]
  MIC90: 1.74 µg/mL (≈ 5.75 µM)

## Cc1cc(CNCc2ccccc2)c(C)n1-c1ccccn1
[1]
  MIC90: > 25 µg/mL

## CO[C@H]1/C=C/O[C@@]2(C)Oc3c(C)c(O)c4c(O)c(c(/C=N/N5CCN(C)CC5)c(O)c4c3C2=O)NC(=O)/C(C)=C\C=C\[C@H](C)[C@H](O)[C@@H](C)[C@@H](O)[C@@H](C)[C@H](OC(C)=O)[C@@H]1C [RIFAMPIN]
[6]
  MIC90: 0.2 µg/mL (≈ 0.243 µM)
[7]
  MIC90: > 25 µg/mL
[8]
  MIC90: > 25 µg/mL
[9]
  MIC90: > 25 µg/mL
[10]
  MIC90: > 25 µg/mL
[1]
  MIC90: 0.05 µg/mL (≈ 0.0608 µM)

## Cc1cc(CNCC2CCCCC2)c(C)n1C(C)c1ccccc1 (centres undefined)
[12]
  Activity: Active
[2]
  IC50 at 24 h: 60.6 µg/mL (≈ 187 µM)
[6]
  MIC90: 8.7 µg/mL (≈ 26.8 µM)
[3]
  IC50 at 24 h: 23.4 µg/mL (≈ 72.2 µM)
[7]
  MIC90: 10.2 µg/mL (≈ 31.3 µM)
[8]
  MIC90: 9.13 µg/mL (≈ 28.1 µM)
[4]
  selectivity ratio: 13.5
[5]
  selectivity ratio: 5.23
[9]
  MIC90: 9.94 µg/mL (≈ 30.6 µM)
[10]
  MIC90: 4.32 µg/mL (≈ 13.3 µM)
[11]
  Activity: 3.94 log10CFU/ml
[1]
  MIC90: 4.48 µg/mL (≈ 13.8 µM)

## Cc1cc(CNCC2CCCCC2)c(C)n1-c1ccccn1
[1]
  MIC90: 16.3 µg/mL (≈ 54.7 µM)

## Cc1cc(CNCCCCNC(=N)N)c(C)n1-c1ccc(Cl)cc1.Cl.Cl
[1]
  MIC90: 14.2 µg/mL

## Cc1cc(CNCC2CCCCC2)c(C)n1Cc1ccccn1
[1]
  MIC90: 23 µg/mL (≈ 73.9 µM)

## Cc1cc(CNC2CCCCC2)c(C)n1-c1ccc(C(=O)O)cc1
[1]
  MIC90: > 25 µg/mL

## Cc1cc(CNCc2ccccc2)c(C)n1-c1nc2ccccc2s1
[1]
  MIC90: 11.2 µg/mL (≈ 32.1 µM)

## Cc1cc(CNCc2ccccc2)c(C)n1C1CCCC1
[1]
  MIC90: 13.4 µg/mL (≈ 47.6 µM)

## Cc1cc(CNC2CCCCC2)c(C)n1-c1ccc(OCC(=O)N(C)C)cc1
[1]
  MIC90: > 25 µg/mL

## Cc1ccc(-n2c(C)cc(CNCC3CCCCC3)c2C)cc1
[2]
  IC50 at 24 h: 25.1 µg/mL (≈ 80.7 µM)
[3]
  IC50 at 24 h: 15.6 µg/mL (≈ 50.2 µM)
[4]
  selectivity ratio: 5.13
[5]
  selectivity ratio: 3.19
[1]
  MIC90: 4.88 µg/mL (≈ 15.7 µM)

## Cc1cc(CNCc2ccccc2)c(C)n1Cc1ccc(Cl)cc1
[1]
  MIC90: 10.6 µg/mL (≈ 31.1 µM)

## Cc1cc(CNCCCCCCCCNC(=N)N)c(C)n1-c1ccc(OCC(=O)O)cc1.Cl.Cl
[1]
  MIC90: 13.2 µg/mL

## Cc1cc(CNCC2CCCCC2)c(C)n1-c1nc2ccccc2s1
[12]
  Activity: Active
[2]
  IC50 at 24 h: 8.47 µg/mL (≈ 24 µM)
[6]
  MIC90: 20.1 µg/mL (≈ 56.9 µM)
[3]
  IC50 at 24 h: 10.3 µg/mL (≈ 29.2 µM)
[7]
  MIC90: 23.5 µg/mL (≈ 66.5 µM)
[8]
  MIC90: 19.6 µg/mL (≈ 55.5 µM)
[4]
  selectivity ratio: 21.2
[5]
  selectivity ratio: 25.8
[9]
  MIC90: 13.6 µg/mL (≈ 38.5 µM)
[10]
  MIC90: 10.9 µg/mL (≈ 30.9 µM)
[1]
  MIC90: 0.4 µg/mL (≈ 1.13 µM)
[13]
  Activity: Active

## Cc1cc(CNCC2CCCCC2)c(C)n1-c1ccccc1
[1]
  MIC90: 0.3 µg/mL (≈ 1.01 µM)
